“Also recorded” adds a separate entry of the source. Where two headings read alike, the source gives them in different places.
Key:
[1] = tested on: intracellular parasites in T. cruzi-infected microtissue; assay: 3D-microtissue-based phenotypic screening (T. cruzi-infected Vero spheroids); type: cell-based, Trypanosoma cruzi; conditions: 72 h treatment; for viability of intracellular parasites in microtissue, luminescence intensity (ALU): Bz 100 µM
Experimental: Vero cells were seeded at a density of 2 × 10^5 cells/well in a 96-well U-bottom plate previously coated with agarose (1%). The 3D cultures, adapted from, were cultivated for 4 days in RPMI 1640 medium supplemented with 10% FBS and L-glutamine for complete 3D microtissue formation. The 3D culture model was used as a tool to evaluate the effectiveness of promising derivatives in eliminating intracellular parasites in the microtissue.
The 3D-microtissue-based phenotypic screening was performed with the promising pyrazole derivatives. […] At the end of the treatment, the 3D cultures supernatants were removed, and luciferin (300 μg/mL) was added to the spheroids. The luminescent signal was read on the Glomax-Multi Detection reader (Promega Corporation, Madison, WI, USA). Bz (100 µM) and DMSO (≤1%) were used as positive and negative control, respectively. The IC50 value was calculated by linear regression. At least three independent assays were performed in quadruplicate.

[2] = Cytotoxicity in vitro assay (ATP, CellTiter Glo, 72 h); type: cell-based; conditions: African green monkey, Vero cells
Experimental: Vero cells, obtained from the Rio de Janeiro Cell Bank (BCRJ code 0245), were cultured in RPMI-1640 supplemented with 10% fetal bovine serum (FBS) and 1 mM L-glutamine, as previously described. Vero cells were used for drug screening assays and to obtain trypomastigote forms of T. cruzi.
Vero cells were used as a cellular model to analyze the toxic effect of pyrazole derivatives, series 1(a–l), 2(a–l), 3(a–n), 4(a–c), and 5(a–c), and Benznidazole (Bz) on mammalian cells. Briefly, the cells, plated on 96-well white opaque microplate (1.5 × 10^4 cells/well), were treated for 72 h at 37 °C with a wide range concentration (500–1.95 µM) of the pyrazole derivatives. The cell viability was determined by measuring ATP levels using the CellTiter Glo Kit (Promega Corporation, Madison, WI, EUA) followed by reading the luminescent signal on the Glomax-Multi Detection plate reader (Promega Corporation, Madison, WI, EUA)). All treatments and controls were performed at a low concentration of DMSO (≤1%). The 50% cytotoxic concentration values (CC50; the concentration of the compound that reduces 50% of the cell viability) were estimated by linear regression analysis. Three independent assays were performed in duplicate.

[3] = tested on: intracellular amastigotes of T. cruzi; assay: Activity against intracellular amastigotes in infected Vero cells (Dm28c-Luc, 72 h); type: cell-based, Trypanosoma cruzi; conditions: for IC90: read-out: Trypanocidal Activity Intracellular Amastigotes IC90
Excerpt: (§1) T. cruzi Dm28c clone genetically modified to express luciferase, kindly provided by Dr. Cristina Henriques from Oswaldo Cruz Institute–Fiocruz, was used in the drug assays. Trypomastigotes were harvested from T. cruzi-infected Vero cultures supernatants at 4th days post-infection (dpi) and used in the phenotypic screening assay. For intracellular amastigotes assays, Vero cells (2D and 3D cultures) were infected at a ratio of 10:1 parasites/host cells.
The effect of the pyrazole derivatives against intracellular amastigotes was also evaluated after 72 h treatment (37 °C) with compound concentrations ranging from 0.04–100 µM [13]. Parasite viability, measured by luminescent signal, was determined after luciferin (300 µg/mL) addition. IC50 and IC90 values were calculated by linear regression. Selectivity index (SI) was calculated as the ratio of the CC50 to IC50 values. The non-toxic concentration of DMSO (less than 1% v/v) was used in all assays. A minimum of three independent assays was carried out in duplicate.

[4] = tested on: T. cruzi cysteine protease; assay: Cysteine protease activity of trypomastigote total protein extracts (Z-FR-AMC); type: biochemical, Trypanosoma cruzi; conditions: 300 µM, Z-FR-AMC 60 µM, pH 5.0, 37 °C
Experimental: Total protein extract from trypomastigotes (Dm28c-Luc; 10^8 parasites/mL) were extracted with lysis buffer. Cysteine protease activity of extracts (5 μg) was measured in acetate buffer using fluorogenic peptide substrate (60 μM of 7-Amino-4-Methylcoumarin hydrochloride, CBZ-L-Phenylalanyl-L-Arginine amide (Z-FR-AMC). Total protein extracts were incubated for 45 min at room temperature with the compounds and changes in relative fluorescence units monitored using a SpectraMaxM2e spectrophotometer (Molecular Devices, Sunnyvale, CA, USA) for 1 h with excitation at 370 nm and emission at 460 nm. The inhibition assays were performed by coincubation with different compounds (3g, 3j, and 3m) and concentrations (300–11.11 µM) and transepoxysuccinyl-L-leucylamido-(4-guanidino) butane (E-64). Additional control was carried out with DMSO (≤1%). Enzymatic activity was expressed in µmol/min/mg of protein and the residual activity in percentage.
Figure 6 Inhibition of T. cruzi cysteine protease activity. Total protein extracts of trypomastigotes (5 µg), was incubated at different concentrations (300–11.11 µM) of compounds E64 (black circle), 3g (black triangle), 3j (black square) and 3m (white circle) in enzyme activation buffer pH 5.0, at 37 °C. Enzyme activity was measured using a specific fluorogenic peptide substrate Z-FR-AMC (60 µM). Results are presented as percentage of inhibition of enzyme activity (%) and represent the mean and standard deviation (±) of three independent experiments.

[5] = tested on: T. cruzi (Dm28c-Luc) in Vero cells; assay: Reversibility (washout) assay, parasite recrudescence in infected Vero cells; type: cell-based, Trypanosoma cruzi; conditions: for decrease of parasite load compared to untreated infected Vero cell cultures: 72 h treatment at IC90, washout, 72 h without drug
Experimental: To address the question of whether the treatment with 3g, 3j, and 3m leads to parasite clearance, an intracellular T. cruzi washout assay was performed as a strategy for monitoring the parasite recrudescence. In this approach, cultures of infected Vero cells (Dm28c-Luc) were treated for 72 h at IC90 and 50 µM (2 to 5-fold de IC90) concentrations of the promising compounds 3g, 3j, and 3m and, after washing the cell monolayers, the cultures were kept for another 72 h without drug treatment. Both cell monolayers and their supernatants were evaluated for the presence of viable parasites after luciferin addition. All derivatives analyzed relapsed at the IC90 concentration (Figure 3). However, treatment with 3g, 3j, and 3m led to a significant reduction in the parasite load, reaching a decrease of 4.5-, 1.9-, and 8.7-fold, respectively, when compared to untreated infected Vero cells cultures (Figure 3). The emergence of trypomastigotes in the supernatant, at IC90 concentration, was observed three days after removal of drug pressure, but with a significant reduction in viable parasites compared to untreated cultures (Figure 3). Parasite recrudescence was not seen in 100 µM Bz treatment (Figure 3).
The washout assay, adapted from, was performed to evaluate the promising compounds efficacy. […] After successive washing, the cultures were maintained for an additional 72 h at 37 °C in RPMI 1640 medium supplemented with 10% SFB in the absence of the compound. Luciferin (300 µg/mL) was added separately to the culture supernatant, previously removed, and the cell monolayer. The luminescent signal was read on the Glomax-Multi Detection reader (Promega Corporation, Madison, WI, USA). Bz (100 µM) and DMSO (≤1%) were used as positive and negative reaction controls, respectively.

[6] = tested on: trypomastigote forms of T. cruzi; assay: Phenotypic screening against T. cruzi trypomastigotes (Dm28c-Luc, luciferase viability, 24 h); type: cell-based, Trypanosoma cruzi; conditions: for Trypomastigotes SI: CC50 of Vero cells/IC50 of trypomastigote; for IC50 / IC90: Trypanosoma cruzi, Dm28c-Luc, 24 h; for IC50: read-out: Trypanocidal Activity Trypomastigotes IC50; for IC90: read-out: Trypanocidal Activity Trypomastigotes IC90
Excerpt: as §1
The phenotypic compound screening was performed using transgenic T. cruzi parasites expressing the firefly luciferase (Dm28c-Luc). Trypomastigotes (1 × 10^6 parasites/well) were treated for 24 h at 37 °C with the pyrazole derivatives and Bz (0.04–100 μM), followed by incubation with luciferin substrate (300 µg/mL) to determine parasite viability through luciferase activity. The concentration that reduces the number of viable parasites by 50% (IC50) or 90% (IC90) was calculated by linear regression. The luminescent signal was read on a Glomax-Multi Detection plate reader (Promega Corporation, Madison, WI, EUA)). At least three independent assays were performed in duplicate.

[7] = tested on: T. cruzi-infected cardiac microtissue; design: method as in PMID 32564978; conditions: 5 nM; cited from earlier work
[8] = tested on: trypomastigote forms of T. cruzi; design: method as in PMID 31434040; conditions: read-out: IC50 against trypomastigotes; cited from earlier work
[9] = Trypanosoma cruzi, Vero, negative log of the IC50 value in molar, read-out: Intracellular Amastigotes pIC50 (converted)
[10] = Trypanosoma cruzi, Vero cells infected with Dm28c-Luc, 72 h

| Compound | reduction of microtissue infection [1] [%] | viability of intracellular parasites in microtissue, luminescence intensity (ALU) [1] | CC50 at 72 h [2] [µM] | IC50 [3, 9] [µM] | IC90 [3, 10] [µM] | fold increase of activity against intracellular amastigotes versus hit compound ([3]; compared to hit compound) [fold] | trypanocidal activity fold higher than 3e ([3]; intracellular amastigotes) [fold] | maximum inhibition of cysteine protease enzymatic activity [4] [%] | parasite recrudescence / efficacy ([5]; 50 µM (2 times IC90), 72 h after washout) | decrease of parasite load compared to untreated infected Vero cell cultures [5] [fold] | Trypomastigotes SI [6] | IC50 [6] [µM] | IC90 [6] [µM] | reduction of parasite load [7] [%] | IC50 ([3]; Trypanosoma cruzi, Vero, 72 h, Vero cells infected with Dm28c-Luc, 72 h, read-out: Trypanocidal Activity Intracellular Amastigotes IC50) [µM] | IC50 ([3]; Vero cells infected with Dm28c-Luc, 72 h, read-out: Trypanocidal Activity Intracellular Amastigotes IC50) [µM] | IC50 [8] [µM] |
| --- | --- | --- | --- | --- | --- | --- | --- | --- | --- | --- | --- | --- | --- | --- | --- | --- | --- |
| Cc1ccc(-n2cc(C3=NCCN3)cn2)cc1Cl [Compound 3m, 1-(3-chloro-4-methylphenyl)-4-(4,5-dihydro-1H-imidazol-2-yl)-1H-pyrazole] | 93 | 12,683 ± 3976 ALU | 161 ± 16.1 | 3.55 | 21.4 ± 1.25 | 3.8 | 21 | 26 | without parasitism recrudescence; also recorded: same activity profile as 100 µM Bz | 8.7 | 4.64 | 34.5 ± 8.32 | > 100 | – | – | – | – |
| CC[C@@H]([C@H](C)O)n1ncn(-c2ccc(N3CCN(c4ccc(OC[C@@H]5CO[C@@](Cn6cncn6)(c6ccc(F)cc6F)C5)cc4)CC3)cc2)c1=O [Posaconazole, posaconazole] | – | – | – | – | – | – | – | – | – | – | – | – | – | 50 | – | – | – |
| Clc1ccc(-n2cc(C3=NCCN3)cn2)cc1 [Compound 3g, 1-(4-chlorophenyl)-4-(4,5-dihydro-1H-imidazol-2-yl)-1H-pyrazole] | – | 36,130 ± 5764 ALU | 277 ± 15.8 | 6.03 | 26.1 ± 14.3 | – | – | 26 | – | 4.5 | 4.27 | 64.6 ± 1.56 | > 100 | – | < 10 | 6.09 ± 0.52 | – |
| 5-amino-1-aryl-4-(4,5-dihydro-1H-imidazol-2-yl)-1H-pyrazole [hit compound] | – | – | – | – | – | – | – | – | – | – | – | – | – | – | – | – | 9.5 ± 1.2 |
| Brc1ccc(-n2cc(C3=NCCN3)cn2)cc1 [Compound 3j, 1-(4-bromophenyl)-4-(4,5-dihydro-1H-imidazol-2-yl)-1H-pyrazole] | – | 39,001 ± 9952 ALU | 309 ± 34.3 | 2.75 | 9.67 ± 0.3 | – | – | 26 | – | 1.9 | 5.36 | 57.7 ± 3.14 | 95.3 ± 5.43 | – | – | – | – |

From PMC8587750, “Structural Optimization and Biological Activity of Pyrazole Derivatives: Virtual Computational Analysis, Recovery Assay and 3D Culture Model as Potential Predictive Tools of Effectiveness against Trypanosoma cruzi” (Molecules, 2021)
